Measurements reported in patent publication US11077126B2 (priority 2017, dated 2021).

How the values were obtained:
[1] = test system: transplanted tumor of human renal cell adenocarcinoma 769-P cells; assay: Human renal cell adenocarcinoma in nude mice model; conditions: 769-P nude mice; 30 mg/kg i.g. 30 d
Method: (§1) Then cell concentration was adjusted to 1×10^7/ml with matrigel, and then each nude mouse was inoculated subcutaneously with 0.2 ml of cells at its right armpit and recorded as the first day of inoculation. […] Each group was continuously administered intragastrically for 30 days with a dose of 20 ml/kg. The mice were sacrificed the next day after drug withdrawal and the indicators were tested. The long diameter and short diameter of tumor, and the body weight of each mouse were recorded every 3 days from drug administration to nude mouse sacrifice.
(§2) The body weight of the nude mice and the long diameter (a) and short diameter (b) of the transplanted tumor were measured every 3 days, and the tumor volume (v), relative tumor volume (RTV) and relative tumor proliferation rate (T/C) are calculated respectively according to the following formulas, wherein V=a×b^2/2; RTV=V/V0 (V0 is the tumor volume before administration, V is the tumor volume before sacrifice), and T/C (%)=treatment group RTV/model control group RTV×100%.
(§3) Each mouse was weighed and sacrificed. After the tumor was completely stripped off from the body of the mouse, the non-tumor tissues such as blood stains and fat were removed to weigh the tumor and calculate the tumor growth inhibition rate. The average tumor weight of each group of mice is used as an indicator of efficacy. Tumor growth inhibition rate (%)=(1−the average tumor weight of the treatment group/the average tumor weight of the model group)×100%.

[2] = test system: transplanted tumor of human large cell lung cancer H460 cells; assay: Human large cell lung cancer (H460) in nude mice model; conditions: 30 mg/kg i.g. 30 d
Method: as §1, with “diameter of the tumor, and” for “diameter of tumor, and”
as §2, §3

[3] = test system: transplanted tumor of human gastric adenocarcinoma SGC7901 cells; assay: Human gastric adenocarcinoma in nude mice model; conditions: 30 mg/kg
Method: as §1, with “diameter of the tumor, and” for “diameter of tumor, and”
as §2, §3

[4] = test system: transplanted tumor of human prostate cancer PC3 cells; assay: Human prostate cancer in nude mice model; conditions: 30 mg/kg i.g. 30 d
Method: as §1, with “diameter of the tumor, and” for “diameter of tumor, and”
as §2, §3

[5] = test system: transplanted tumor of human cervical cancer HeLa cells; assay: Human cervical cancer in nude mice model; conditions: 30 mg/kg i.g. 30 d
Method: as §1, with “Then the cells were subjected to trypsinization, centrifugation, and supernatant removal. Then cell” for “Then cell”, “with matrigel, then each” for “with matrigel, and then each”, “diameter of the tumor, and” for “diameter of tumor, and”
as §2
as §3, with “Calculation of Tumor Growth Inhibition Rate Each” for “Each”

[6] = test system: transplanted tumor of mouse Lewis lung cancer; assay: Inhibition of transplanted tumor of mouse Lewis lung cancer
Method: Lewis lung cancer cells were cultured in a RPMI 1640 culture medium containing 10% fetal bovine serum at 37° C. in a 5% CO2 incubator. The cells in the logarithmic growth phase were subjected to trypsinization with 0.25% trypsin, then the cells were collected to be centrifugated to remove the obtained supernatant, then were washed twice with sterile normal saline. […] The Lewis cells were adjusted to 1×10^7/mL in concentration and stored in ice water. 75% ethanol was used to disinfect the skin under the right armpits of the mice, and each C57BL/6 mouse was soon inoculated subcutaneously with 0.2 ml of the cells at its right armpit.
In the Lewis lung cancer model, the mice inoculated with the tumor were randomly divided into groups with 10 mice in each group on the next day of inoculation. […] Each group was continuously administered intragastrically for 15 days with a dose of 20 ml/kg.
The tumor-bearing mice were weighed and sacrificed the next day after the last administration. The subcutaneous tumors were dissected and weighed. The average tumor weight of each group is calculated, and the tumor inhibition rate is calculated. Tumor inhibition rate=(1−T/C)×100%
T: average tumor weight of the drug-administered group; C: average tumor weight of the blank control group.

[7] = test system: transplanted tumor of human non-small cell lung cancer A549 cells; assay: Human non-small cell lung cancer in nude mice model; conditions: 30 mg/kg i.g. 30 d
Method: A549 cells in a logarithmic growth phase were taken and subjected to a trypan blue exclusion experiment showing that the cell viability was more than 95%, then the cells were subjected to trypsinization, centrifugation, and supernatant removal. Then cell concentration was adjusted to 1×10^7/ml with matrigel, then each nude mouse was inoculated subcutaneously with 0.2 ml of cells at its right armpit and recorded as the first day of inoculation. When the tumor growed to be greater than or equal to 100 mm^3, the mice were randomly divided into 5 groups with 6 mice in each group. […] Each group was continuously administered intragastrically for 30 days with a dose of 20 ml/kg. The mice were sacrificed the next day after drug withdrawal and the indicators were tested. The long diameter and short diameter of the tumor, and the body weight of each mouse were recorded every 3 days from drug administration to nude mouse sacrifice.
as §2, §3

O=P1(N(CCCl)CCCl)NCCCO1 (stereo not shown) [Cyclophosphamide]
Body Weight (g)(d1) [1]: 22.48 ± 0.91 g | Body Weight (g)(d30) [1]: 21.28 ± 0.39 g | Inhibition Rate (%) [1]: 76.09% | Relative Tumor Proliferation Rate(T/C) [1]: 19.68% | Relative Tumor Volume (RTV) [1]: 4.19 ± 1.29 | Tumor Volume (mm3) (d1) [1]: 178.48 ± 28.78 mm3 | Tumor Volume (mm3) (d30) [1]: 747.83 ± 138.57 mm3 | Tumor Weight [1]: 0.61 ± 0.15 g | Body Weight (g)(d1) [2]: 20.32 ± 0.87 g | Body Weight (g)(d30) [2]: 19.25 ± 0.83 g | Inhibition Rate (%) [2]: 68.49% | Relative Tumor Proliferation Rate(T/C) [2]: 36.37% | Relative Tumor Volume (RTV) [2]: 7.66 ± 1.26 | Tumor Volume (mm3) (d1) [2]: 130.82 ± 2.38 mm3 | Tumor Volume (mm3) (d30) [2]: 1002.08 ± 48.82 mm3 | Tumor Weight [2]: 0.61 ± 0.13 g | Relative Tumor Proliferation Rate(T/C) [3]: 48.83% | Relative Tumor Volume (RTV) [3]: 7.86 ± 3.23 | Tumor Weight [3]: 0.71 ± 0.08 g | Inhibition Rate (%) ([3]; by tumor weight): 70.97% | Body Weight (g)(d1) ([3]; d1): 21.80 ± 1.96 g | Tumor Volume (mm3) (d1) ([3]; d1): 102.45 ± 9.52 mm3 | Body Weight (g)(d30) ([3]; d30): 20.25 ± 1.57 g | Tumor Volume (mm3) (d30) ([3]; d30): 799.74 ± 82.25 mm3 | Body Weight (g)(d1) [4]: 19.32 ± 0.25 g | Body Weight (g)(d30) [4]: 18.68 ± 1.21 g | Inhibition Rate (%) [4]: 70.06% | Relative Tumor Proliferation Rate(T/C) [4]: 23.29% | Relative Tumor Volume (RTV) [4]: 4.67 ± 0.82 | Tumor Volume (mm3) (d1) [4]: 108.68 ± 13.62 mm3 | Tumor Volume (mm3) (d30) [4]: 507.88 ± 87.93 mm3 | Tumor Weight [4]: 0.56 ± 0.4 g | Body Weight (g)(d1) [5]: 20.04 ± 0.68 g | Body Weight (g)(d30) [5]: 19.20 ± 0.18 g | Inhibition Rate (%) [5]: 72.48% | Relative Tumor Proliferation Rate(T/C) [5]: 24.35% | Relative Tumor Volume (RTV) [5]: 3.44 ± 0.93 | Tumor Volume (mm3) (d30) [5]: 397.88 ± 103.60 mm3 | Tumor Weight [5]: 0.49 ± 0.39 g | Tumor Weight ([6]; 26 mg/kg, positive drug group, 15 days): 0.59 ± 0.13 g | Inhibition Rate (%) ([6]; 26 mg/kg, positive drug group, by tumor weight): 49.14% | Body Weight (g)(d1) ([6]; 26 mg/kg, positive drug group, d1): 25.60 ± 2.06 g | Body Weight (g) (d15) ([6]; 26 mg/kg, positive drug group, d15): 20.14 ± 3.26 g | tumor inhibition rate ([6]; mouse Lewis lung cancer, cyclophosphamide 30 mg/kg i.g. 15 days): 49.14% | Body Weight (g)(d1) [7]: 20.89 ± 0.91 g | Body Weight (g)(d30) [7]: 18.97 ± 0.82 g | Inhibition Rate (%) [7]: 81.25% | Relative Tumor Proliferation Rate(T/C) [7]: 23.28% | Relative Tumor Volume (RTV) [7]: 3.97 ± 0.68 | Tumor Volume (mm3) (d1) [7]: 127.26 ± 15.21 mm3 | Tumor Volume (mm3) (d30) [7]: 504.75 ± 143.63 mm3 | Tumor Weight [7]: 0.21 ± 0.11 g
